The NIST ThermoML archive (doi:10.1016/j.tca.2011.08.002)

Tests used:
[1] = xn = mol fraction of the nth substance listed; conditions: 101 kPa, Liquid, Vibrating tube method
[2] = refractive index (Na D-line) (dimensionless); xn = mol fraction of the nth substance listed; conditions: 101 kPa, Liquid, Standard Abbe refractometry

C1CCC(NC2CCCCC2)CC1 [N-cyclohexylcyclohexanamine] + CCCO
Conditions | mass density, [1] [kg/m3] | refractive index, [2]
288.15 K, x2 = 0 | 915.498 | 1.48636
288.15 K, x2 = 0.0527 | 914.71 | 1.48522
288.15 K, x2 = 0.1009 | 913.805 | 1.48396
288.15 K, x2 = 0.2004 | 911.438 | 1.48074
288.15 K, x2 = 0.3002 | 908.197 | 1.47672
288.15 K, x2 = 0.4003 | 903.914 | 1.47182
288.15 K, x2 = 0.5005 | 898.063 | 1.46554
288.15 K, x2 = 0.6 | 889.96 | 1.45743
288.15 K, x2 = 0.6998 | 878.617 | 1.44689
288.15 K, x2 = 0.8 | 862.501 | 1.4327
288.15 K, x2 = 0.8999 | 839.78 | 1.41365
288.15 K, x2 = 0.9491 | 825.362 | 1.40206
293.15 K, x2 = 0 | 911.705 | 1.48416
293.15 K, x2 = 0.0527 | 910.893 | 1.48299
293.15 K, x2 = 0.1009 | 909.957 | 1.48175
293.15 K, x2 = 0.2004 | 907.522 | 1.47851
293.15 K, x2 = 0.3002 | 904.203 | 1.47445
293.15 K, x2 = 0.4003 | 899.835 | 1.4695
293.15 K, x2 = 0.5005 | 893.905 | 1.4632
293.15 K, x2 = 0.6 | 885.737 | 1.45509
293.15 K, x2 = 0.6998 | 874.377 | 1.44458
293.15 K, x2 = 0.8 | 858.315 | 1.43047
293.15 K, x2 = 0.8999 | 835.696 | 1.41145
293.15 K, x2 = 0.9491 | 821.334 | 1.39989
298.15 K, x2 = 0 | 907.923 | 1.48198
298.15 K, x2 = 0.0527 | 907.079 | 1.48079
298.15 K, x2 = 0.1009 | 906.116 | 1.47952
298.15 K, x2 = 0.2004 | 903.612 | 1.47626
298.15 K, x2 = 0.3002 | 900.208 | 1.47217
298.15 K, x2 = 0.4003 | 895.758 | 1.46722
298.15 K, x2 = 0.5005 | 889.747 | 1.46088
298.15 K, x2 = 0.6 | 881.518 | 1.45273
298.15 K, x2 = 0.6998 | 870.137 | 1.44226
298.15 K, x2 = 0.8 | 854.115 | 1.4282
298.15 K, x2 = 0.8999 | 831.592 | 1.40927
298.15 K, x2 = 0.9491 | 817.281 | 1.3977
303.15 K, x2 = 0 | 904.144 | 1.47978
303.15 K, x2 = 0.0527 | 903.271 | 1.47861
303.15 K, x2 = 0.1009 | 902.276 | 1.47729
303.15 K, x2 = 0.2004 | 899.7 | 1.47402
303.15 K, x2 = 0.3002 | 896.218 | 1.4699
303.15 K, x2 = 0.4003 | 891.683 | 1.46491
303.15 K, x2 = 0.5005 | 885.59 | 1.45856
303.15 K, x2 = 0.6 | 877.299 | 1.4504
303.15 K, x2 = 0.6998 | 865.887 | 1.43992
303.15 K, x2 = 0.8 | 849.899 | 1.42592
303.15 K, x2 = 0.8999 | 827.461 | 1.40709
303.15 K, x2 = 0.9491 | 813.202 | 1.39547
308.15 K, x2 = 0 | 900.372 | 1.47761
308.15 K, x2 = 0.0527 | 899.466 | 1.47642
308.15 K, x2 = 0.1009 | 898.437 | 1.47508
308.15 K, x2 = 0.2004 | 895.78 | 1.47179
308.15 K, x2 = 0.3002 | 892.225 | 1.46765
308.15 K, x2 = 0.4003 | 887.605 | 1.46262
308.15 K, x2 = 0.5005 | 881.429 | 1.45625
308.15 K, x2 = 0.6 | 873.074 | 1.44805
308.15 K, x2 = 0.6998 | 861.626 | 1.43759
308.15 K, x2 = 0.8 | 845.662 | 1.42358
308.15 K, x2 = 0.8999 | 823.3 | 1.40482
308.15 K, x2 = 0.9491 | 809.088 | 1.39323
313.15 K, x2 = 0 | 896.608 | 1.47562
313.15 K, x2 = 0.0527 | 895.664 | 1.4743
313.15 K, x2 = 0.1009 | 894.6 | 1.47287
313.15 K, x2 = 0.2004 | 891.876 | 1.4695
313.15 K, x2 = 0.3002 | 888.227 | 1.46533
313.15 K, x2 = 0.4003 | 883.521 | 1.46024
313.15 K, x2 = 0.5005 | 877.263 | 1.45383
313.15 K, x2 = 0.6 | 868.843 | 1.44565
313.15 K, x2 = 0.6998 | 857.35 | 1.43509
313.15 K, x2 = 0.8 | 841.4 | 1.42112
313.15 K, x2 = 0.8999 | 819.106 | 1.40242
313.15 K, x2 = 0.9491 | 804.934 | 1.39093
318.15 K, x2 = 0 | 892.847 | 1.47347
318.15 K, x2 = 0.0527 | 891.862 | 1.47211
318.15 K, x2 = 0.1009 | 890.759 | 1.47068
318.15 K, x2 = 0.2004 | 887.957 | 1.4673
318.15 K, x2 = 0.3002 | 884.225 | 1.46306
318.15 K, x2 = 0.4003 | 879.43 | 1.45795
318.15 K, x2 = 0.5005 | 873.086 | 1.45151
318.15 K, x2 = 0.6 | 864.613 | 1.44331
318.15 K, x2 = 0.6998 | 853.054 | 1.43279
318.15 K, x2 = 0.8 | 837.107 | 1.41883
318.15 K, x2 = 0.8999 | 814.869 | 1.40021
318.15 K, x2 = 0.9491 | 800.736 | 1.38876
323.15 K, x2 = 0 | 889.089 | 1.47134
323.15 K, x2 = 0.0527 | 888.061 | 1.46997
323.15 K, x2 = 0.1009 | 886.919 | 1.46853
323.15 K, x2 = 0.2004 | 884.032 | 1.4651
323.15 K, x2 = 0.3002 | 880.209 | 1.46087
323.15 K, x2 = 0.4003 | 875.326 | 1.4557
323.15 K, x2 = 0.5005 | 868.893 | 1.4492
323.15 K, x2 = 0.6 | 860.363 | 1.44112
323.15 K, x2 = 0.6998 | 848.736 | 1.43046
323.15 K, x2 = 0.8 | 832.782 | 1.41649
323.15 K, x2 = 0.8999 | 810.587 | 1.39788
323.15 K, x2 = 0.9491 | 796.489 | 1.38638
